Source: patent US10768185B2, “Tenofovir detection assay” (TRUSTEES OF BOSTON UNIVERSITY, priority 2017, dated 2020)
Counter-ions that a name gives are not always drawn.

Assays:
[1] = test system: anti-TFV antibody conjugated to gold nanoparticles; experiment: Lateral flow assay specificity test; type: binding, rabbit; settings: 100 μg/mL in urine
Experimental: (§1) Hi-Flow Plus HF180 nitrocellulose sheets were laser cut into lateral flow strips and chromatography paper was adhered to the end of the strips as a waste reservoir using autoclave tape. Samples of TFV were prepared at varying concentrations between 10 ng/mL and 100 μg/mL in urine alongside a no TFV control sample. For each sample, 1 μL of conjugated gold nanoparticles was added to 244, of PBS and 804, of sample was added. The mixture was allowed to incubate at room temperature on a rotator for at least 30 minutes. 0.3 μL of anti-rabbit antibody was spotted on the strips as a control spot. 0.3 μL of 2.5 μg/mL BSA-TFV was spotted as the test spot on the strips upstream of the control spot. The spots were allowed to dry and another 0.3 μL of BSA-TFV was spotted on top of the test spot. After incubation, concentrated TBS-T was added to each sample such that the final Tween 20 concentration was 0.05%. One end of each of the lateral flow strips was dipped vertically into the sample tubes such that the solution ran up the nitrocellulose strip and into the waste reservoir via capillary action. The strips were incubated in the solution for 25-30 minutes before being photographed with a Nikon DS-Ri2 camera and analyzed via ImageJ.
The protocol is the same as the competitive lateral flow assay. Solutions of TFV, AZT, Abcavir, AMP, and adenine were made at concentrations of 100 μg/mL alongside a urine only control sample.

[2] = test system: anti-TFV polyclonal antibody; experiment: Immunoprecipitation of TFV by anti-TFV antibody, LC-MS readout; type: binding, rabbit; settings: mixture of 50 μg/mL TFV and 1 mg/mL AMP (AMP 20× higher), anti-TFV serum, Protein G beads
Experimental: LC-MS measurements were taken on an Agilent 1100 series LC/MSD with a Cortecs C18 column (90 Å, 2.7 μm, 4.6 mm×150 mm) from Waters (Milford, Mass.). Samples were dissolved in a solution of 9754, 0.6% trifluoroacetic acid in water and 254, methanol. 204, of sample was injected into a gradient mobile phase outlined in Table 1 at a flowrate of 0.6 mL/min into the column equilibrated at 45° C. and passed through the mass spectrometer set for positive polarity electrospray ionization (ESI+) at a range of 100-1500 m/z.
Two samples were prepared containing a mixture of 1004, of 50 μg/mL TFV and 100 μL of 1 mg/mL AMP. To one tube 375 μL of anti-TFV serum (+IP) was added and to the other 375 μL of PBS (−IP). The samples were incubated while rotating at 4° C. overnight. 3004, of Protein G bead suspension was added to the samples and further incubated at 4° C. for 1 hour. The samples were spun down for 1 minute at 3000 rpm and decanted. The supernatant from the (−IP) sample (−IPsup) was set aside. The beads were then washed and decanted four times with yeast lysis buffer (50 mM HEPES pH 7.6, 1 mM EDTA, 1% Triton X-100, 0.1% sodium deoxycholate, 140 mM NaCl), with the third wash being with a high salt yeast lysis buffer (500 mM NaCl). The beads were then heat eluted for 5 minutes at 95° C. into 100 μL of TE buffer. […]

[3] = cited from earlier work
[4] = cited from earlier work; remark: listed apart in the source
[5] = test system: anti-TFV antibody conjugated to gold nanoparticles; experiment: Competitive gold nanoparticle lateral flow assay, sensitivity test; type: binding, rabbit
Experimental: as §1
There was a statistically significant difference between groups as determined by one-way ANOVA (F(5,24)=15.0, p=1.02×10^−6).

[6] = test system: anti-TFV polyclonal antibody; experiment: Competitive dot blot assay; type: binding, rabbit; settings: spiked urine, HRP-coupled secondary antibody
Experimental: Nitrocellulose strips were cut to dimensions of approximately 7 mm by 25 mm. BSA-TFV solution in PBS was diluted down to either 1 μg/mL or 100 ng/mL representing about a 1000-fold or 10,000-fold dilution factor. The strips were then spotted 3 times with luL of diluted BSA-TFV and allowed to dry. The strips were blocked with 5% milk in tris-buffered saline with Tween 20 (TBS-T) for 30 minutes and washed three times with TBS-T. Samples of TFV were prepared at varying concentrations between 1 ng/mL and 1 μg/mL in either TBS-T or human urine alongside a no TFV control sample. Anti-TFV polyclonal antibody from raw serum (e.g., unpurified) was added to the TFV samples at a dilution of 1:50,000 and incubated at room temperature while rotating for at least 1 hour. The strips were incubated in the spiked urine or TBS-T solutions of TFV and anti-TFV polyclonal antibody at room temperature while rotating for 1 hour and washed three times with TBS-T followed by a high-salt (500 mM NaCl) TBS-T wash and a low-salt (50 mM NaCl) TBS-T wash. The strips were then incubated in a 1:8000 dilution in TBS-T of anti-Rabbit antibody conjugated to HRP at room temperature while rotating for 1 hour and washed three times with TBS-T. The HRP was then visualized by pico chemiluminescent substrate and chemiluminescent photographs were taken by a VersaDoc Imaging Model 4000 system from BioRad.

## Nc1ncnc2c1ncn2[C@@H]1O[C@H](COP(=O)(O)O)[C@@H](O)[C@H]1O [AMP, adenosine monophosphate]
[1]
  staining of test area (no staining = positive for TFV): staining in both the test area and control area
[2]
  presence in immunoprecipitation product by LC-MS: absence

## Cc1cn([C@H]2C[C@H](N=[N+]=[N-])[C@@H](CO)O2)c(=O)[nH]c1=O [AZT]
[1]
  staining of test area (no staining = positive for TFV): staining in both the test area and control area

## Nc1nc(NC2CC2)c2ncn([C@H]3C=C[C@@H](CO)C3)c2n1 [Abcavir]
[1]
  staining of test area (no staining = positive for TFV): staining in both the test area and control area

## Nc1ncnc2nc[nH]c12 [Adenine, adenine]
[1]
  staining of test area (no staining = positive for TFV): staining in both the test area and control area

## NNC(=O)c1ccncc1 [INH, isoniazid]
[3]; typical dose 250 mg/day for a 50 kg patient
  urinary concentrations of INA: ~100 µg/mL
[3]; within 24 hr
  oral dose recovered in the urine as INA: 30-40%

## CC(C)OC(=O)[C@H](C)N[P@](=O)(CO[C@H](C)Cn1cnc2c(N)ncnc21)Oc1ccccc1 [TAF, tenofovir alafenamide]
[4]; TAF 25 mg per day, compared with TDF
  decrease in TFV plasma concentrations: ~10 ×

## CC(C)OC(=O)OCOP(=O)(CO[C@H](C)Cn1cnc2c(N)ncnc21)OCOC(=O)OC(C)C [TDF, tenofovir disoproxil fumarate]
[4]; patient taking 300 mg TDF daily
  urine concentration of TFV: around 23 μg/mL

## C[C@H](Cn1cnc2c(N)ncnc21)OCP(=O)(O)O [TFV, Tenofovir]
[1]
  staining of test area (no staining = positive for TFV): no staining
[4]; 300 mg ingested only once, after 24-72 hours
  concentration of TFV in urine: 1 to 10 µg/mL
[4]; patients on TFV regimens
  urinary concentration of TFV relative to plasma concentration: over 100 ×
[5]; 1 μg/mL, 10 μg/mL and 100 μg/mL TFV in urine, N=5
  test spot intensity versus no-TFV control (ANOVA, Tukey post hoc): statistically significant differences
[5]; spiked urine, preliminary
  lower limit of detection / sensitivity: 1 µg/mL
[2]
  presence in immunoprecipitation product by LC-MS: presence
[6]
  lower limit of detection: 35 nM
